In article PMC11792831, “Design and synthesis of doublecortin-like kinase 1 inhibitors and their bioactivity evaluation” (Journal of Enzyme Inhibition and Medicinal Chemistry, 2023):

Key:
[1] = target: T1, DCLK1 (Homo sapiens, UniProt O15075); assay: In vitro DCLK1 kinase activity assay (Eurofins); type: biochemical; conditions: for Selectivity (DCLK1 activity/LRRK2 activity): ratio of remaining activities at 1 uM; for activity at 1 µM / DCLK1 activity (%): remaining kinase activity at 1 uM compound, 100% = no inhibition, 0% = complete inhibition; for activity at 1 µM: read-out: DCLK1 activity (%)
T1 construct: purchased Eurofins (Belgium), contract assay service
T1 sequence (O15075 1-740): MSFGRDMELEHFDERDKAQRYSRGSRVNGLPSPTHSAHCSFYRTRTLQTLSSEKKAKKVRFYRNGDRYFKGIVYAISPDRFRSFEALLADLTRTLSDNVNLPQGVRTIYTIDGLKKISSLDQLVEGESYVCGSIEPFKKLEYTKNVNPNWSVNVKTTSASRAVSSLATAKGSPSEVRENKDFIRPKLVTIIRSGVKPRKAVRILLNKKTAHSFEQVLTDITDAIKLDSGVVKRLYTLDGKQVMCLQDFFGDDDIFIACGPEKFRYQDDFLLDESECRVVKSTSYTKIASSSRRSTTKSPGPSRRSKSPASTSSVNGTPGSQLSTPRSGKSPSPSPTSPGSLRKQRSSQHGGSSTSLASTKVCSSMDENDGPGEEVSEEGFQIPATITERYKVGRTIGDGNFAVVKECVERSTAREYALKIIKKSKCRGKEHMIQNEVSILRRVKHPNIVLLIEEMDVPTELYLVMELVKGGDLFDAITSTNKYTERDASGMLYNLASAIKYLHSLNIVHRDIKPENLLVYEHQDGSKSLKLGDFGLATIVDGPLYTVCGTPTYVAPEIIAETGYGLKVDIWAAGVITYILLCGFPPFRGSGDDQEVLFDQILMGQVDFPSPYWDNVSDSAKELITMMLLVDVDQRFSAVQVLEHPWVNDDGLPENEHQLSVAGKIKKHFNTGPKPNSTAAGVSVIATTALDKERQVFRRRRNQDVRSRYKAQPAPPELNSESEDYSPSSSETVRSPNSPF
Description: (§1) Eurofins (Belgium) conducted in vitro DCLK1 and LRRK2 kinase activity assays. Compounds were sent as dry powders to Eurofins.

[2] = target: T2, LRRK2 (Homo sapiens, UniProt Q5S007); assay: In vitro LRRK2 kinase activity assay (Eurofins); type: biochemical; conditions: remaining kinase activity at 1 uM compound; 100% = no inhibition, 0% = complete inhibition
T2 construct: purchased Eurofins (Belgium), contract assay service
Experimental: All compounds were tested for their kinase inhibitory activity at the concentration of 1 μM. […] Compounds with high activity or good selectivity were selected for further IC50 determination (Table 2).
as §1

T2 sequence (Q5S007 whole entry): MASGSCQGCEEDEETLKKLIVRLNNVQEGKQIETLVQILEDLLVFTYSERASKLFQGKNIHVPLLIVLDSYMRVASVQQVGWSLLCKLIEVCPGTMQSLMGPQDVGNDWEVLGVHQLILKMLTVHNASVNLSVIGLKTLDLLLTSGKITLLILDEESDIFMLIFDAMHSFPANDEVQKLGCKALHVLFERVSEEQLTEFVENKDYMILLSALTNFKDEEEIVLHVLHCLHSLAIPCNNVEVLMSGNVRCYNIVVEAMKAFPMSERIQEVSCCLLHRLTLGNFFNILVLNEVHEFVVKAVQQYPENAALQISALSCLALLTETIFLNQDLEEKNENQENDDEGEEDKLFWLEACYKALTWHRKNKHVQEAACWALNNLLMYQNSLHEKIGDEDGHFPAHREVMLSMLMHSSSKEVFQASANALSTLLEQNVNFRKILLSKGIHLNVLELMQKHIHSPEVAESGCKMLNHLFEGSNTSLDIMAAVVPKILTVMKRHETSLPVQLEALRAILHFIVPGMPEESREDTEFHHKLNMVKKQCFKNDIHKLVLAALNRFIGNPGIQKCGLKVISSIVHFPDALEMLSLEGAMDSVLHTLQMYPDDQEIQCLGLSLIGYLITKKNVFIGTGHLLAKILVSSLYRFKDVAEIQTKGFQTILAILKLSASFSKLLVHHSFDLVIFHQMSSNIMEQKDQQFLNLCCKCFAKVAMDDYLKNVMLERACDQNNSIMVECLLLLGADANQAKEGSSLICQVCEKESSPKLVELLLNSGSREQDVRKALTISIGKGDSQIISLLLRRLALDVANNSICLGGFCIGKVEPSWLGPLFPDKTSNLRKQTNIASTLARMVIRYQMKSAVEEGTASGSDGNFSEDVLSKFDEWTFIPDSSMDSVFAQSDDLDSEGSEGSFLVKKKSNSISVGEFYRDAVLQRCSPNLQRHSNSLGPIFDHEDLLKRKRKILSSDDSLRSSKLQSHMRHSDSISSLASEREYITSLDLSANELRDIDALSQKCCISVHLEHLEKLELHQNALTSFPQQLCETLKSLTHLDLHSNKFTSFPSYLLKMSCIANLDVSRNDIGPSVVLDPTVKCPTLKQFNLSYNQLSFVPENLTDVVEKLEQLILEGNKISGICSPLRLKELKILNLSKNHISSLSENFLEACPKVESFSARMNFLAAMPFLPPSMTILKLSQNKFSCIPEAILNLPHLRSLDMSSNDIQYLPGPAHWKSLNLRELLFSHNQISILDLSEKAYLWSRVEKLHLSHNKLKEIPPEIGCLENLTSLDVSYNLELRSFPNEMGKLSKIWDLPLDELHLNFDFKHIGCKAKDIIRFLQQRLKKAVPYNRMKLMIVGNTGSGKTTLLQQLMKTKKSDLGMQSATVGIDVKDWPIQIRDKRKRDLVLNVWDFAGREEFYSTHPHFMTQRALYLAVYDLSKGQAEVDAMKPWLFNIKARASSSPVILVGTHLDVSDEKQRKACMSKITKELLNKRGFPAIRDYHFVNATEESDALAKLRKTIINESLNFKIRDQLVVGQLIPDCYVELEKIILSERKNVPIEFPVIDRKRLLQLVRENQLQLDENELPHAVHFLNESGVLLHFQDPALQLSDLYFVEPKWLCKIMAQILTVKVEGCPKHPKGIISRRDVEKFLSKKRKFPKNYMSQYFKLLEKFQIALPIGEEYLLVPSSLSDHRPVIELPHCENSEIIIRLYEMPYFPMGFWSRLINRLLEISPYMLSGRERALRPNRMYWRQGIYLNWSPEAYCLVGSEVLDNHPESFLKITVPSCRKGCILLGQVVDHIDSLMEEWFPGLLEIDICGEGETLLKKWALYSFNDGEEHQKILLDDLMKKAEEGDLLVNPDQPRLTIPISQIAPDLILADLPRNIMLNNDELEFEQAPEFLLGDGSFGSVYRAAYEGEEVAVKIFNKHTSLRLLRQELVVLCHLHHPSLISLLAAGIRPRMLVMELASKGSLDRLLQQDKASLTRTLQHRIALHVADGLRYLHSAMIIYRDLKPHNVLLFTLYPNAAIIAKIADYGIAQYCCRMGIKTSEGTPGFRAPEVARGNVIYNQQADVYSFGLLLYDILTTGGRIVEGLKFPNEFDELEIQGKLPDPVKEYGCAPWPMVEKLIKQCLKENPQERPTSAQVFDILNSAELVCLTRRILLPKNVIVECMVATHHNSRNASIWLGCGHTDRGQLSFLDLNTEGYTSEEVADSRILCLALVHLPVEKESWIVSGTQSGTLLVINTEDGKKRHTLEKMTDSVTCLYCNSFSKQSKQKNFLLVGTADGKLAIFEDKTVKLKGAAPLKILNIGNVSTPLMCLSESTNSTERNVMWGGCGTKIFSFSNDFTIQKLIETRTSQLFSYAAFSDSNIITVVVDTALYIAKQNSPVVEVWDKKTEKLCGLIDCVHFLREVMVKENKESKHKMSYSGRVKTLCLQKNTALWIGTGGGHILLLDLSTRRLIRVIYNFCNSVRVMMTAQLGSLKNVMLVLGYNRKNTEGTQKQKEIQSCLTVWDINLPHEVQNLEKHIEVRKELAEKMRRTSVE

| Compound | Selectivity (DCLK1 activity/LRRK2 activity) [1] | activity at 1 µM [1] | activity at 1 µM [2] | melting point | DCLK1 activity (%) [1] | LRRK2 activity (%) [2] |
| --- | --- | --- | --- | --- | --- | --- |
| CCOc1cc(N2CCC(O)CC2)ccc1Nc1ncc2c(n1)N(C)c1cccc(C)c1C(=O)N2C [Compound A10, 2-((2-Ethoxy-4-(4-hydroxypiperidin-1-yl)phenyl)amino)-5,7,11-trimethyl-5,11-dihydro-6H-benzo[e]pyrimido[5,4-b][1,4]diazepin-6-one] | 0.98 | 96% | 98% | 184 to 185 °C | – | – |
| CCOc1cc(N2CCC(O)CC2)ccc1Nc1ncc2c(n1)N(C)c1cc(C)ccc1C(=O)N2C [Compound A4, 2-((2-Ethoxy-4-(4-hydroxypiperidin-1-yl)phenyl)amino)-5,9,11-trimethyl-5,11-dihydro-6H-benzo[e]pyrimido[5,4-b][1,4]diazepin-6-one] | 1.07 | 89% | 83% | 171 to 172 °C | – | – |
| 2-((2-Ethoxy-4-(4-hydroxypiperidin-1-yl)phenyl)amino)-5-methyl-5,11-dihydro-6H-benzo[e]pyrimido[5,4-b][1,4]diazepin-6-one [Compound B2] | 0.82 | – | – | – | 59% | 72% |
| 2-((2-Ethoxy-4-(4-hydroxypiperidin-1-yl)phenyl)amino)-11-methyl-5,11-dihydro-6H-benzo[e]pyrimido[5,4-b][1,4]diazepin-6-one [Compound B1] | 1.34 | – | – | – | 102% | 76% |
| CCOc1cc(N2CCC(O)CC2)ccc1Nc1ncc2c(n1)N(C)c1ccc(C)cc1C(=O)N2C [Compound A8, 2-((2-Ethoxy-4-(4-hydroxypiperidin-1-yl)phenyl)amino)-5,8,11-trimethyl-5,11-dihydro-6H-benzo[e]pyrimido[5,4-b][1,4]diazepin-6-one] | 1.10 | 102% | 93% | 170 to 171 °C | – | – |
| CCOc1cc(N2CCC(O)CC2)ccc1Nc1ncc2c(n1)N(C)c1ccc(C(F)(F)F)cc1C(=O)N2C [Compound A7, 2-((2-Ethoxy-4-(4-hydroxypiperidin-1-yl)phenyl)amino)-5,11-dimethyl-8-(trifluoromethyl)-5,11-dihydro-6H-benzo[e]pyrimido[5,4-b][1,4]diazepin-6-one] | 1.00 | 109% | 109% | 119 to 120 °C | – | – |
| CCOc1cc(N2CCC(O)CC2)ccc1Nc1ncc2c(n1)N(C)c1c(Cl)cccc1C(=O)N2C [Compound A1, 10-Chloro-2-((2-ethoxy-4-(4-hydroxypiperidin-1-yl)phenyl)amino)-5,11-dimethyl-5,11-dihydro-6H-benzo[e]pyrimido[5,4-b][1,4]diazepin-6-one] | 3.13 | 25% | 8% | 130 to 131 °C | – | – |
| CCOc1cc(N2CCC(O)CC2)ccc1Nc1ncc2c(n1)N(C)c1c(C)cccc1C(=O)N2C [Compound A2, 2-((2-Ethoxy-4-(4-hydroxypiperidin-1-yl)phenyl)amino)-5,10,11-trimethyl-5,11-dihydro-6H-benzo[e]pyrimido[5,4-b][1,4]diazepin-6-one] | 1.03 | 103% | 100% | 177 to 178 °C | – | – |
| CCOc1cc(N2CCC(O)CC2)ccc1Nc1ncc2c(n1)N(C)c1ccc(Cl)cc1C(=O)N2C [Compound A5, 8-Chloro-2-((2-ethoxy-4-(4-hydroxypiperidin-1-yl)phenyl)amino)-5,11-dimethyl-5,11-dihydro-6H-benzo[e]pyrimido[5,4-b][1,4]diazepin-6-one] | 0.98 | 87% | 89% | 173 to 174 °C | – | – |
| CCOc1cc(N2CCC(O)CC2)ccc1Nc1ncc2c(n1)N(C)c1cc(Cl)ccc1C(=O)N2C [Compound A3, 9-Chloro-2-((2-ethoxy-4-(4-hydroxypiperidin-1-yl)phenyl)amino)-5,11-dimethyl-5,11-dihydro-6H-benzo[e]pyrimido[5,4-b][1,4]diazepin-6-one] | 0.97 | 85% | 88% | 162 to 163 °C | – | – |

Second part, the compound after the results:

| Selectivity (DCLK1 activity/LRRK2 activity) [1] | activity at 1 µM [1] | activity at 1 µM [2] | melting point | DCLK1 activity (%) [1] | LRRK2 activity (%) [2] | Compound |
| --- | --- | --- | --- | --- | --- | --- |
| 0.45 | 15% | 33% | 181 to 182 °C | – | – | COc1cc(N2CCC(C)(C)CC2)ccc1Nc1ncc2c(n1)N(C)c1ccccc1C(=O)N2C [Compound D16, 2-((4-(4,4-Dimethylpiperidin-1-yl)-2-methoxyphenyl)amino)-5,11-dimethyl-5,11-dihydro-6H-benzo[e]pyrimido[5,4-b][1,4]diazepin-6-one] |
| 0.63 | 51% | 81% | 189 to 190 °C | – | – | CCOc1cc(N2CCC(C)(F)CC2)ccc1Nc1ncc2c(n1)N(C)c1ccccc1C(=O)N2CC [Compound D10, 2-((2-Ethoxy-4-(4-fluoro-4-methylpiperidin-1-yl)phenyl)amino)-5-ethyl-11-methyl-5,11-dihydro-6H-benzo[e]pyrimido[5,4-b][1,4]diazepin-6-one] |
| 2.14 | 15% | 7% | 189 to 190 °C | – | – | CN1C(=O)c2ccccc2N(C)c2nc(Nc3ccc(N4CCC(O)CC4)nc3)ncc21 [Compound C2, 2-((6-(4-Hydroxypiperidin-1-yl)pyridin-3-yl)amino)-5,11-dimethyl-5,11-dihydro-6H-benzo[e]pyrimido[5,4-b][1,4]diazepin-6-one] |
| 0.57 | 56% | 99% | 203 to 204 °C | – | – | CN1C(=O)c2ccccc2N(C)c2nc(NC3CCC(N4CCC(O)CC4)CC3)ncc21 (centres unmarked) [Compound C1, 2-((4-(4-Hydroxypiperidin-1-yl)cyclohexyl)amino)-5,11-dimethyl-5,11-dihydro-6H-benzo[e]pyrimido[5,4-b][1,4]diazepin-6-one] |
| 0.82 | 59% | 72% | 160 to 161 °C | – | – | COc1cc(N2CCC(F)CC2)ccc1Nc1ncc2c(n1)N(C)c1ccccc1C(=O)N2C [Compound D13, 2-((4-(4-Fluoropiperidin-1-yl)-2-methoxyphenyl)amino)-5,11-dimethyl-5,11-dihydro-6H-benzo[e]pyrimido[5,4-b][1,4]diazepin-6-one] |
| 0.51 | 26% | 51% | 178 to 179 °C | – | – | CCOc1cc(N2CCC(C)(O)CC2)ccc1Nc1ncc2c(n1)N(C)c1ccccc1C(=O)N2CC [Compound D9, 2-((2-Ethoxy-4-(4-hydroxy-4-methylpiperidin-1-yl)phenyl)amino)-5-ethyl-11-methyl-5,11-dihydro-6H-benzo[e]pyrimido[5,4-b][1,4]diazepin-6-one] |
